pEC50: −log10 of the molar value. Read-outs that look alike come from different tables or passages of the source.
Columns and labels:
Human primary T cells = assay: In vitro antigen-independent expansion of T cells transduced with constitutive or ACZ-regulated mbIL15 constructs (cell numbers by flow cytometry); type: cell-based
Description: T cells were thawed, cells were washed and counted. T cells were mixed with CD3/CD28 beads (Invitrogen cat#11141D) at 3:1 bead to T cell ratio. 5×10^5 cells/well were added to 24-well plates in 500 μL media. Cells were activated for 24 hrs. Next day, lentivirus was thawed and added to each well at different volumes. After 24 hrs, 500 μL of fresh media was added to wells, and cells were expanded by adding equal volume of fresh media every 2-3 days to keep cell density at 0.5-1×10^6/mL. Cells were analyzed by flow cytometry to confirm expression on day 5 or 6. Cells were expanded for 9-10 days.
After T cell transduction and expansion, CD3/CD28 beads were removed using magnets, cells were washed twice, resuspended in fresh media and counted. Cells were plated in 12-well plates at 1×10^6 in 2 mL. One well of untransduced cells was cultured in the presence of 2 ng/mL IL15 as a control. T cells expressing regulated constructs were cultured in the absence or presence of acetazolamide (ACZ, 30, 10, 3, 1, 0.3 μM). Cell numbers were monitored by flow cytometry every 3-4 days and cells were cultured for 10-12 days. At each time point 100 μL of cells were collected from wells and analyzed by flow cytometry. Cells were split as needed. Cell cultures were maintained in 12-well plates by taking a portion and adding media in a new plate. Volumes for each well were recorded before and after split to calculate final volume in cell number assessment. IL15 or ACZ were replenished at final concentration of the fresh media added during each split.
T cell numbers were determined by flow cytometry. Empty vector (EV) transduced cell numbers decreased to background levels between 3-5 days in the absence of IL15, and cells expanded 11-fold in the presence of 2 ng/mL exogenous IL15 (FIG. 3A). T cells expressing constitutive IL15-292 and IL15-294 expanded between 18 and 21-fold, respectively, in 10 days (FIG. 3A). In T cells expressing IL15-293, maximum expansion was 9.5-11× with 30, 10, 3 μM (FIG. 3B). At the lowest concentration tested (0.3 μM), cells expanded 3.3×. These cells survived longer (0.8×) compared to EV cells without drug treatment […]. In T cells expressing IL15-295, maximum expansion was 8.2-10× with 30, 10, 3 μM and cells expanded 4.9× at the lowest concentration (0.3 μM) tested (FIG. 3C). Without drug treatment, these cells survived (0.9×) longer compared to EV.

T cells [1] = assay: Acetazolamide dose response of IL15 expression on transduced T cells (flow cytometry); type: cell-based, human; conditions: ACZ 24 hrs starting at 100 μM, diluted 3-fold for 9 points
Description: Cells were treated with different concentrations of ACZ (ligand) starting at 100 μM for 24 hrs. Graphs show % IL15+ T Cells (FIG. 4A) and mean fluorescence intensity (MFI) of IL15 (FIG. 4B).
The effect of different concentrations of ACZ on IL15 expression was tested. T cells were treated with ACZ for 24 hrs starting at 100 μM, diluted 3-fold for 9 points. Both % IL15+ T Cells (FIG. 4A) and IL15 Mean Fluorescence Intensity (MFI) (FIG. 4B) analysis indicated similar dose curves for OT-IL15-293 and OT-IL15-295. There was 4-5-fold increase in expression (both % IL15+ T cells and IL15 MFI) between highest and lowest concentrations of ACZ.

T cells [2] = assay: IL15 expression on T cells in vivo on day 25 (IL15Ra-Fc staining, flow cytometry); design: species or system NSG mice; conditions: day 25, treated with ACZ 200 mg/kg daily PO
Description: Human primary T cells capable of expressing constitutive mbIL15 or ACZ-regulated mbIL15 were prepared in accordance with methods described in Example 1 above. After T cell transduction and expansion, CD3/CD28 beads were removed using magnets, cells were washed twice, resuspended in fresh media and counted. T cells were mixed with expanded NK cells and each animal received 5×10^6 T cells and 2×10^6 expanded NK cells. Cells were infused by intravenous injections into NSG mice. Animals infused with T cells expressing regulated constructs were dosed daily with 200 mg/kg ACZ or vehicle by PO injections. Every 3-4 days, 50 μL blood was analyzed by flow cytometry for presence of T cells and NK cells using antibodies against mouse and human CD45, CD3 and CD56. IL15 expression on day 25 was analyzed using IL15Ra-Fc and fluorochrome conjugated anti-human IgG antibody.
IL15 expression on T cells in vivo on day 25 was analyzed by flow cytometry (FIG. 5C). T cells transduced with constitutive constructs IL15-292 and IL15-294 expressed high levels of IL15 (82% and 61%). IL15 expression was <1.5% in vehicle-treated IL15-293 and IL15-295 as well as EV groups. IL15 expression levels were 11% and 9% on T cells transduced with IL15-293 and IL15-295 in groups treated with ACZ.

TIL = assay: Expression of regulated mbIL15 in TIL in response to ACZ (anti-IL15 and IL15Ra-Fc co-staining); type: cell-based, human
Description: HEK293T cells were seeded on collagen coated tissue culture plates until 70% confluent. Cells were transfected with pELNS transfer vector carrying constitutive (IL15-292) or regulated (IL15-293) IL15 constructs, as well as packaging plasmids (pRSV.REV, pMDLg/pRRE and OT-BaEVg-002 (SEQ ID NO: 51)) using Lipofectamine 3000 transfection reagent in Opti-MEM media. Media was replaced 6-8 hrs post-transfection with serum-free media. Supernatants containing virus were harvested 24 hr post-transfection, fresh media was added, and supernatants were harvested again at 48 hr post-transfection. Viral supernatants were filtered to remove debris and concentrated by low speed ultracentrifugation. Virus were resuspended, aliquoted and stored at −80 C freezer.
96-well non-coated tissue culture plates were incubated with 35 μg per mL RetroNectin (Takara Bio) in PBS for 2 h at 37° C. or overnight at 4° C. RetroNectin was removed and the plates washed with PBS. BaEV-pseudotyped lentivirus, prepared as described above, and TIL cell media, at a total volume of 50 μL per well, were added to each well and the plates were centrifuged at low speed for 2 hours at 32° C. TIL generated from a head and neck tumor sample prepared as described in Example 5 were engineered after 3 weeks in the pre-REP culture. TIL were activated for 24 hrs in 24-well plates with anti-CD3/CD28 beads at 3:1 bead to T cell ratio. Activated TIL were placed in virus-coated plates and centrifuged at 800 g for 2 hrs and incubated at 37° C. for 4 days in culture media. One well of cells was processed similarly without virus addition and used as negative control (“untransduced”). Cells that were transduced with the regulated mbIL15 construct were treated either with 10 μM ACZ or DMSO for 24 hrs.
mbIL15 expression was determined by flow cytometry using two staining reagents: fluorochrome-conjugated anti-IL15 antibody as well as a recombinant protein comprised of extracellular domain of IL15Ra fused to human IgG1 Fc domain (IL15Ra-Fc). mbIL15+ cell frequency was determined based on co-staining with anti-IL15 and IL15Ra-Fc (identified as the IL15+IL15Ra-Fc+ double positive population).

[3] = tested on: cord blood-derived NK cells; assay: Regulation of mbIL15 construct with ACZ in cord blood-derived NK cells (IL15Ra-Fc and anti-CD56 FACS); type: cell-based, human; conditions: DMSO overnight, regardless of donor
Description: One day prior to NK cell isolation as described in Example 8, feeder cells (K562 cells expressing 4-1BBL and mblL-21) were thawed in complete NK cell media (RPMI with Glutamax (ThermoFisher), 10% heat-inactivated fetal bovine serum (Gibco), 1× Penicillin/Streptomycin, 1 mM Sodium Pyruvate, 1×HEPES, 50 μM 2-Mercaptoethanol). On the day of NK cell isolation, 10×10^6 feeder cells were treated with mitomycin C to inhibit their proliferation and washed to remove excess drug. NK cells were added to the feeder cells at a 1:2 effector to target ratio in NK cell media with 200 U/mL recombinant human IL2 (rhIL2; PeproTech). NK cell cultures were expanded by replenishing cell cultures with NK cell media and rhIL2 every two days, and analyzed by FACS for NK cell expansion.
96-well non-coated tissue culture plates were incubated with 35 μg per mL RetroNectin (Takara Bio) in PBS for 2 h at 37° C. or overnight at 4° C. RetroNectin was removed and the plates washed with PBS. […]
NK cells from three different donors were isolated, expanded and transduced with BaEV-pseudotyped lentivirus containing either the IL15-292 construct or the IL15-293 construct. The titer of the IL15-292 lentivirus was 2.38×10^8 TU/mL while the titer for the IL15-293 lentivirus was 6.51×10^8 TU/mL (as measured by a Jurkat qPCR titer), and 4 μL lentivirus and 46 μL NK cell media were added to each well. […]

[4] = tested on: TIL-matched patient-derived xenografts (hPDX); assay: Human PDX (hPDX) model with engineered matched TIL; type: in vivo, NSG mice
Description: To evaluate the effect of regulated mbIL15 on the anti-tumor activity of tumor infiltrating lymphocytes (TIL), a human PDX (hPDX) model is used. […] TIL are transduced with BaEV-pseudotyped lentiviral vectors containing either the IL15-292 construct or the IL15-293 construct, as described in Example 6, or with BaEV-pseudotyped lentiviral empty vector (EV), and then optionally frozen. TIL-matched patient-derived xenografts (hPDX) from the tumor sample are established via subcutaneous implant into the right flank of NSG mice. Tumor growth is measured once or twice per week using calipers. On study start, tumors are measured, and mice are randomized and placed in cohorts based on similar mean tumor volume across all groups into new cages (N=8 for each group). […]
Group 1 receives untransduced TIL supplemented with recombinant human IL2 (hIL2) as benchmark control, and group 2 receives TIL transduced with constitutive mbIL15 (IL15-292). […] Blood (50 μL) was withdrawn from submandibular veins on pre-determined days. Red blood cells are lysed, stained with fluorochrome-conjugated antibodies against human CD45, CD3 and mouse CD45, and cells are analyzed by flow cytometry. Tumor growth is measured for up to approximately 90 days; endpoints include maximal caliper measurements as well as effects on animal health, such as tumor necrosis and decrease in body weight.

HL-60-luc = assay: HL-60 animal model of acute myeloid leukemia with engineered NK cells; type: in vivo, NSG mice
Description: To evaluate the effect of regulated mbIL15 on the anti-tumor activity of NK cells, an HL-60 animal model of acute myeloid leukemia is used. Cord blood NK cells are transduced with BaEV-pseudotyped lentiviral vectors containing either the IL15-292 construct or the IL15-293 construct, as described in Example 9, or with BaEV-pseudotyped lentiviral empty vector (EV), and optionally frozen after transduction. HL-60 cells expressing luciferase (HL-60-luc) are injected intravenously (1×10^6/mouse) into NSG mice and tumor growth is measured once or twice per week by bioluminescence imaging measurement (total flux units in photons per second (p/s) after intraperitoneal injections of D-luciferin). On day 6, animals are randomized into new cages (N=8 for each group) when average tumor size reaches approximately 10^6 total p/s. […]
Group 1 receives NK cells engineered with EV as a negative control, and group 2 receives NK cells transduced with constitutive mbIL5 (construct IL15-292). […] Red blood cells are lysed, stained with fluorochrome-conjugated antibodies against human CD45, CD3 and mouse CD45, and cells are analyzed by flow cytometry. Tumor growth is measured up to approximately 30 days; endpoints include maximal total flux units (10^10) as well as effects on animal health such as hind-limb paralysis and decrease in body weight.

Substance | T cell expansion (Human primary T cells; Empty vector (EV) transduced cells, 2 ng/mL exogenous IL15) [fold] | T cell expansion at the lowest concentration tested (Human primary T cells; ACZ 0.3 μM) [×] | maximum T cell expansion (Human primary T cells; ACZ 30, 10, 3 μM) | T cell survival/expansion without drug treatment (Human primary T cells; no ACZ) [×] | pEC50 (T cells [1]; read-out: EC50 of ACZ based on % IL15+ T Cells) | pEC50 (T cells [1]; read-out: EC50 of ACZ based on MFI of IL15) | IL15 expression on T cells (T cells [2]) [%] | MFI of regulated mbIL15 in TIL (TIL; 10 μM ACZ 24 hrs) | regulated mbIL15 expression in TIL (TIL; 10 μM ACZ 24 hrs) [%] | MFI of regulated mbIL15 in TIL (TIL; DMSO 24 hrs) | regulated mbIL15 expression in TIL (TIL; DMSO 24 hrs) [%] | regulated mbIL15 expression in NK cells [3] [%] | tumor growth ([4]; group 3, TIL transduced with regulated mbIL15, 200 mg/kg ACZ daily PO) | tumor growth ([4]; group 4, TIL transduced with regulated mbIL15, vehicle daily) | tumor growth (HL-60-luc; group 3, NK cells transduced with regulated mbIL15, 200 mg/kg ACZ daily PO) | NK cell expansion and persistence compared to groups 1 and 4 (HL-60-luc; group 3, regulated mbIL15, 200 mg/kg ACZ daily PO)
exogenous IL15: exogenous IL15 (2 ng/mL) added to control T cell cultures [reference compound] | 11 |  |  |  |  |  |  |  |  |  |  |  |  |  |  | 
IL15-293: ACZ-regulated mbIL15 construct, mbIL15 linked to CA2 (M1del, L156H) DRD (AA SEQ ID NO: 24) |  | 3.3 | 9.5-11 × | 0.8 | 6.54 | 6.19 | 11 | high | 42.5 | low | 17.1 | ≤ 10 | substantially regress | No tumor growth inhibition | regress substantially | higher expansion and persistence

Reference: US11058725B2, “CA2 compositions and methods for tunable regulation” (Obsidian Therapeutics, Inc., priority 2019, dated 2021)
